Experimental findings from publication PMC11233931, “Remodeling tumor‐associated macrophage for anti‐cancer effects by rational design of irreversible inhibition of mitogen‐activated protein kinase‐activated protein kinase 2” (MedComm, 2024) are described below.

In one series the test system is VEGF mRNA in THP-1 cells. The series can be described thus: RT-PCR of VEGF in IL-4/IL-13 stimulated THP-1 cells. As to conditions: IL-4/IL-13, 12 h. Type of series: cell-based, human. The source says: Following this line of investigation, we employed siRNA for the transient knockdown of MK2 in THP‐1 monocyte‐ differentiated macrophages. […] M2 macrophages play a pivotal role in promoting tumor angiogenesis through the secretion of critical factors like VEGF, which facilitate tumor neovascularization.[17] […] These findings further validate the significance of MK2 in the M2 polarization of macrophages and illustrate how compound 11, by targeting MK2, suppresses the pro‐tumorigenic phenotype of macrophages.
Total RNA was extracted from cultured cells using the EZ‐press RNA Purification Kit (EZBioscience). Complementary DNA was synthesized using the ABScript III RT Master Mix for qPCR with gDNA remover (ABclonal Technology) and was quantified with primers listed in Table S5. The relative mRNA expression levels were quantified through qPCR using the SYBR green gene expression assay (ABclonal Technology).
Figure S3 Inhibition of pro-tumorigenic M2-like polarization in macrophages by compound 11. (A) Illustrates the treatment effects on various macrophage cells using Western blot analysis post IL-4/IL-13 exposure (30 minutes or the specified time period). (B) Examines CD206 expression in RAW264.7 cells via flow cytometry post 48hours treatment of compound 11 and IL-4/IL-13. […] IL-4/IL-13 (20 ng/mL) served as the stimulation control, while untreated cells were the baseline control. […]

The nature of series [1]: Cell viability assay (CCK-8), PANC-1. As to conditions: PANC-1 cells (pancreatic carcinoma), PANC-1, human pancreatic carcinoma, read-out: IC50 (μM) mean ± SD, cytotoxicity. The series is classed as cell-based. As for the experimental part: In cellular experiments, cells are seeded into either 6-well or 96-well plates and incubated overnight, proceeding with treatments as described in the figure legends or methods section. The cell inoculation numbers are outlined as follows: For assays measuring cell viability, between 3,000 to 5,000 cells are seeded per well in 96-well plates. For other cellular assays, the seeding density ranges from 5×10^5 to 1×10^6 cells per well in 6-well plates.
Cells was plated into 96-well plates and incubated overnight prior to introduction of varying concentrations of compounds or control solvent. Following a 72-hour exposure period, cell viability was determined using a Cell Counting Kit-8 assay (Life-iLab, China). Dose-response curves were fitted using a four-parameter method facilitated by SoftMax Pro, which was subsequently used for the computation of IC50 values.

In series [2] the target is T1, 380 human recombinant protein kinases (Homo sapiens, UniProt P48729).
T1 construct: purchased Eurofins (Celle Lévescault)
T1 sequence (P48729 whole entry): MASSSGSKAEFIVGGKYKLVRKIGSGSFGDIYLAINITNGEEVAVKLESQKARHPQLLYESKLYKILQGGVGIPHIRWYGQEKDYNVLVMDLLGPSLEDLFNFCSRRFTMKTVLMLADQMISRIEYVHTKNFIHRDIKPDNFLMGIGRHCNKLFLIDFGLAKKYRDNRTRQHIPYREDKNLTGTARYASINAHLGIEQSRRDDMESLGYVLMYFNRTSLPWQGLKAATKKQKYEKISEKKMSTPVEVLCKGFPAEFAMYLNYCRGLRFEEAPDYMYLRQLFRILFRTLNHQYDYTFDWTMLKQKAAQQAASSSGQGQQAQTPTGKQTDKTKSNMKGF
As to the kind of experiment: Eurofins kinase selectivity profile against 380 other human recombinant kinases (Table S2). The series is classed as biochemical. As to conditions: CK1α(h), read-out: Inhibition rate. Summed up:
(§1)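 The inhibitor was sent to a contract lab and screened at various concentrations against 380 human recombinant protein kinases. This served as a counter-screen for MK2 specificity.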

The target of series [3] is T2, 380 human recombinant protein kinases (Homo sapiens, UniProt P53779).
T2 construct: purchased Eurofins (Celle Lévescault)
T2 sequence (P53779 whole entry): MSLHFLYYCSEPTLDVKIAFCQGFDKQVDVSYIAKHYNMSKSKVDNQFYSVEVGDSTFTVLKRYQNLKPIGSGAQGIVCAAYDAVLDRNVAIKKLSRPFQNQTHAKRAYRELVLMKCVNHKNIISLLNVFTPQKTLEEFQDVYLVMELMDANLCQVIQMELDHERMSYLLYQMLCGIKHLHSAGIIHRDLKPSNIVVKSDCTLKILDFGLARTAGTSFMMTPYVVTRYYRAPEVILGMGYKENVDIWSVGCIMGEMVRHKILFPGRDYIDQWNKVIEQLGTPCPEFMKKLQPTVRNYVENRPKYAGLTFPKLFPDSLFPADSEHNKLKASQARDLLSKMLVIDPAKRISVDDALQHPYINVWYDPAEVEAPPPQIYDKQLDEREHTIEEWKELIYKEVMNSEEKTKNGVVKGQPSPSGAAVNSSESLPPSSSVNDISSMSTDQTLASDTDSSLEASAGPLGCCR
Described as above. Type of series: biochemical. As to conditions: JNK3(h), read-out: Inhibition rate. The procedure, abridged:
as §1

Series [4] has as its target T3, 380 human recombinant protein kinases (Homo sapiens, UniProt Q13237).
T3 construct: purchased Eurofins (Celle Lévescault)
T3 sequence (Q13237 1-762): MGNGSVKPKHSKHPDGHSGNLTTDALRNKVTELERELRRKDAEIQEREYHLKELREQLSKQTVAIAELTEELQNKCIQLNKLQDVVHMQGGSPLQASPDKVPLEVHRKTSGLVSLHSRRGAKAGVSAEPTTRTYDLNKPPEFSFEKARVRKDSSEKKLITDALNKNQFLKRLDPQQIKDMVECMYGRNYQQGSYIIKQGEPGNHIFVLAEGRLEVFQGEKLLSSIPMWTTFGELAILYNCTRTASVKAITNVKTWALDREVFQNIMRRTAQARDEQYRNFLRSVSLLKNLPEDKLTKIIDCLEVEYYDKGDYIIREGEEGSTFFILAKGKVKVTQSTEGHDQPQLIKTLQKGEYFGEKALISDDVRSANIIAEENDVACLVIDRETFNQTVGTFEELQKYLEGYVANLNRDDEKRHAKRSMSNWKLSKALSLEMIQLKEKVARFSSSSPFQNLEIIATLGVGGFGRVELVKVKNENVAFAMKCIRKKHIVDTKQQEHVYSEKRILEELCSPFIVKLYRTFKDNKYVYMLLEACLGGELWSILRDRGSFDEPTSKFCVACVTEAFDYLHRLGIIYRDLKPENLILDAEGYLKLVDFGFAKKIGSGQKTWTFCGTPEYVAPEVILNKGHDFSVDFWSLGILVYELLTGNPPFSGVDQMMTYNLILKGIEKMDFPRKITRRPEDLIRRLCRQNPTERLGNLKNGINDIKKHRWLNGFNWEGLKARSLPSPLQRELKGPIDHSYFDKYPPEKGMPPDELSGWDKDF
The description is as above. Type of series: biochemical. As to conditions: PRKG2(h), read-out: Inhibition rate. The procedure, abridged: as §1

Structures are written as SMILES.

In general, IC50 refers to the concentration needed to halve the response being measured. The term inhibition denotes the change of the read-out against control, counted positive when it falls.

As for `C=CC(=O)Nc1cc(-c2cc(-c3cc4c([nH]3)CCNC4=O)ccn2)ccc1OC(F)(F)F` [compound 11], the “effect on relative mRNA level of VEGF” value in the series with VEGF mRNA in THP-1 cells is reported as “inhibited”. Moreover, the IC50 at 72 h in series [1] is 35.3 ± 1.4 µM. In addition, the inhibition at 0.01 µM is 15% in series [2] (10 nM), 4% in series [3] (10 nM) and 7% in series [4] (10 nM). The inhibition at 0.1 µM was 30% in series [2] (100 nM), 6% in series [3] (100 nM) and 19% in series [4] (100 nM). In addition, the inhibition at 1 µM turned out to be 70% in series [2] (1000 nM), 38% in series [3] (1000 nM) and 35% in series [4] (1000 nM).
